# According to US7858635B2 (priority 2005, dated 2010):
# Where two headings read alike, the source gives them in different places.
# What was measured:
# M1 muscarinic receptor = molecular target: T1, M1 muscarinic receptor (Homo sapiens, UniProt P11229); experiment: Functional mobilization of intracellular calcium (FLIPR, Fluo-3), M1-CHO cells; type: cell-based; settings: for Emax: 100% efficacy is the maximum response obtained with the Carbachol control, read-out: M1 Efficacy
# T1 construct: expressed in transfected cells; host or cells: CHO cells (M1-CHO, under zeocin and G418 selection)
# T1 sequence (P11229 1-460): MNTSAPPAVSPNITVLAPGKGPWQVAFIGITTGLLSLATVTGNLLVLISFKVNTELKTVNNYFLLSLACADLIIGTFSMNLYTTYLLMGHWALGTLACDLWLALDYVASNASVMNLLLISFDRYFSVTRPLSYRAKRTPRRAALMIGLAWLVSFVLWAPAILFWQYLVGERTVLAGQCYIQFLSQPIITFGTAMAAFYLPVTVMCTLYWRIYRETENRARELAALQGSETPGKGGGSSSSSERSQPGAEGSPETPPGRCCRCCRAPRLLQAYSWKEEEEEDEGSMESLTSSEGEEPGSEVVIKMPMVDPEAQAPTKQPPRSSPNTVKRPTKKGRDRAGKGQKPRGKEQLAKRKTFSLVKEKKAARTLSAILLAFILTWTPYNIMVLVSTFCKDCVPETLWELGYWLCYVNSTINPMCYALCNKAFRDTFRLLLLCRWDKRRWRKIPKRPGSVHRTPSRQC
# Outline: (§1)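 Intracellular calcium was tracked by fluorescence (488/540 nm) over 60 sec after compound addition to dye-loaded CHO cells expressing the receptor. Inhibitory activity used a 15 min pre-incubation before carbachol at the subtype EC80.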
# M4 muscarinic receptor = molecular target: T2, M4 muscarinic receptor (Homo sapiens, UniProt P08173); experiment: Functional mobilization of intracellular calcium (FLIPR, Fluo-3), M4-CHO cells; type: cell-based; settings: for Emax: 100% efficacy is the maximum response obtained with the Carbachol control, read-out: M4 Efficacy
# T2 construct: expressed in transfected cells; host or cells: CHO cells (M4-CHO, under puromycin, zeocin and blasticidin selection)
# T2 sequence (P08173 1-479): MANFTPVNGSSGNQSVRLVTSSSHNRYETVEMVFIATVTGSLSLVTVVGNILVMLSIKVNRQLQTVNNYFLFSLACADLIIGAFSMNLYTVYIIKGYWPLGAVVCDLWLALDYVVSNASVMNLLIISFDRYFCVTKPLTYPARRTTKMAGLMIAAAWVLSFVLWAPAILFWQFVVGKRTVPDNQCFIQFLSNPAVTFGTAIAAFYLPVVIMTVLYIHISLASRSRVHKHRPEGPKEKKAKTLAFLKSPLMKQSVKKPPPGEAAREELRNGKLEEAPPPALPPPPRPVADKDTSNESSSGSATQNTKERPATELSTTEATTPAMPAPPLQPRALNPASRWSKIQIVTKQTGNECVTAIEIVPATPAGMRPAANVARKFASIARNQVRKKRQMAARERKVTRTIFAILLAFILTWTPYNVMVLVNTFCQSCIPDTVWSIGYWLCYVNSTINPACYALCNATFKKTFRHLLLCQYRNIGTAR
# Outline: as §1
# [1] = compound nos. 1-454, M1-CHO cells, calcium mobilization
# [2] = compound nos. 1-454, M4-CHO cells, calcium mobilization
Compound,Emax (M1 muscarinic receptor; compound nos. 1-454),M1 Activity (M1 muscarinic receptor; [1]),Emax (M4 muscarinic receptor; compound nos. 1-454),M4 Activity (M4 muscarinic receptor; [2]),Emax (M1 muscarinic receptor; compound nos. 455-509),M1 Activity (M1 muscarinic receptor; compounds 455-509),Emax (M4 muscarinic receptor; compound nos. 455-509),M4 Activity (M4 muscarinic receptor; compounds 455-509)
O=C(O[C@@H]1CCOC1)N1C2CCC1CC(N1CCC3(CC1)C(=O)Nc1ccccc13)C2 (stereo partly drawn) [compound 336],< 65%,+ (activity was measured to be greater than or equal to 3.0 μM),< 55%,+ (activity was measured to be greater than or equal to 4.0 μM),,,,
CCCS(=O)(=O)N1CC2(CCN(C3CC4CCC(C3)N4C(=O)OCC)CC2)c2cc(F)ccc21 (stereo not drawn) [compound 349],> 85%,++ (activity was measured to be between 0.7 μM and 3.0 μM),> 70%,++ (activity was measured to be between 0.1 μM and 4.0 μM),,,,
CN(C)C(=O)N1CC2(CCN(C3CCN(c4cnccn4)CC3)CC2)c2ccccc21 [compound 464],,,,,> 100%,+++ (activity was measured to be less than or equal to 2.0 μM),> 100%,++ (activity was measured to be between 2.0 μM and 5.0 μM)
COCCOC(=O)N1C2CCC1CC(N1CCC3(CC1)CN(C(=O)OC)c1ccc(F)cc13)C2 (stereo not drawn) [compound 33],> 85%,+++ (activity was measured to be less than or equal to 0.7 μM),> 70%,+++ (activity was measured to be less than or equal to 0.1 μM),,,,
Cc1ccc2c(c1)C1(CCN(CC3CC4C=CC3C4)CC1)CN2 (stereo not drawn) [compound 3],65 to 85%,+++ (activity was measured to be less than or equal to 0.7 μM),55 to 70%,++ (activity was measured to be between 0.1 μM and 4.0 μM),,,,
Cc1ccc2c(c1)C1(CCN(C3CC4CCC3C4)CC1)CN2C(=O)OC(C)(C)C (stereo not drawn) [compound 116],65 to 85%,+++ (activity was measured to be less than or equal to 0.7 μM),< 55%,++ (activity was measured to be between 0.1 μM and 4.0 μM),,,,
CCOC(=O)N1CCC(N2CCC3(CC2)CN(C(C)=O)c2ccc(-c4ccc(OC)cc4)cc23)CC1 [compound 193],< 65%,+ (activity was measured to be greater than or equal to 3.0 μM),< 55%,+ (activity was measured to be greater than or equal to 4.0 μM),,,,
CCCC1CCC(N2CCC3(CC2)CN(C(C)=O)c2ccc(F)cc23)CC1 (stereo not drawn) [compound 131],65 to 85%,+++ (activity was measured to be less than or equal to 0.7 μM),> 70%,++ (activity was measured to be between 0.1 μM and 4.0 μM),,,,
CCOC(=O)N1C2CCC1CC(N1CCC3(CC1)CN(C(=O)O[C@@H]1CCOC1)c1ccc(F)cc13)C2 (stereo partly drawn) [compound 28],> 85%,+++ (activity was measured to be less than or equal to 0.7 μM),55 to 70%,++ (activity was measured to be between 0.1 μM and 4.0 μM),,,,
